One data set concerns the target T1, human PPAR gamma (Homo sapiens, UniProt P37231).
T1 construct: expressed in transfected cells; host or cells: CV-1 cells
T1 sequence (P37231 238-503 limits assumed): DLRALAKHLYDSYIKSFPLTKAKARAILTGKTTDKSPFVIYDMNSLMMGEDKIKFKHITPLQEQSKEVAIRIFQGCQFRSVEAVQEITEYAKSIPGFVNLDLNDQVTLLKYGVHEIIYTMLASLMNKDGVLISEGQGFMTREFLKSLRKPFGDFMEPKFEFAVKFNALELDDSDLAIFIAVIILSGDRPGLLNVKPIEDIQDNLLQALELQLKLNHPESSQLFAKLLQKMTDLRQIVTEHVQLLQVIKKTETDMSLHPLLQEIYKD
As to the kind of experiment: Transient transfection (transactivation) assay in CV-1 cells, hPPAR gamma. It is filed as cell-based. Particulars: PPAR transactivation activity; GAL4-PPAR LBD chimera in CV-1 cells; concentration achieving 50% of maximum activity; read-out: human γEC50. The source says:
(§1) Most preferably, the compounds of formula (I) are selective hPPARalpha agonists. As used herein, a “selective hPPAR alpha agonist” is a hPPARalpha agonist whose EC50 for PPARalpha is at least 10 fold lower than its EC50 for PPAR gamma and PPAR delta. […] Most preferred compounds are greater than 100-fold selective hPPARalpha agonists (see Table 1).
(§2) Compounds were screened for functional potency in transient transfection assays in CV-1 cells for their ability to activate the PPAR subtypes (transactivation assay). A previously established chimeric receptor system was utilized to allow comparison of the relative transcriptional activity of the receptor subtypes on the same target gene and to prevent endogenous receptor activation from complicating the interpretation of results. See, for example, Lehmann, J. M.; Moore, L. B.; Smith-Oliver, T. A.; Wilkison, W. O.; Willson, T. M.; Kliewer, S. A., An antidiabetic thiazolidinedione is a high affinity ligand for peroxisome proliferator-activated receptor γ (PPARγ), J. Biol. Chem., 1995, 270, 12953–6. The ligand binding domains for murine and human PPAR alpha, PPAR gamma, and PPAR delta were each fused to the yeast transcription factor GAL4 DNA binding domain. […]

In another data set the target is T2, human PPAR alpha (Homo sapiens, UniProt Q07869).
T2 construct: expressed in transfected cells; host or cells: CV-1 cells
T2 sequence (Q07869 239-466 limits assumed): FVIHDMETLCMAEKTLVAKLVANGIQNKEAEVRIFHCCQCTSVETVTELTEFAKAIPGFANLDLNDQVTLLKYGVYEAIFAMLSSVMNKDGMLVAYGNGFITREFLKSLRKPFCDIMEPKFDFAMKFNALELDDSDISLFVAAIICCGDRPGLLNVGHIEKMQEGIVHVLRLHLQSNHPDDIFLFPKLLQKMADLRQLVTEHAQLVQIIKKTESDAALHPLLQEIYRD
As to the kind of experiment: Transient transfection (transactivation) assay in CV-1 cells, hPPAR alpha. It counts as cell-based. The note with it: PPAR transactivation activity; GAL4-PPAR LBD chimera in CV-1 cells; concentration achieving 50% of maximum activity; read-out: human αEC50.
Text: as §1, §2

For a further data set, the target named is T3, human PPAR delta (Homo sapiens, UniProt Q03181).
T3 construct: expressed in transfected cells; host or cells: CV-1 cells
T3 sequence (Q03181 211-439 limits assumed): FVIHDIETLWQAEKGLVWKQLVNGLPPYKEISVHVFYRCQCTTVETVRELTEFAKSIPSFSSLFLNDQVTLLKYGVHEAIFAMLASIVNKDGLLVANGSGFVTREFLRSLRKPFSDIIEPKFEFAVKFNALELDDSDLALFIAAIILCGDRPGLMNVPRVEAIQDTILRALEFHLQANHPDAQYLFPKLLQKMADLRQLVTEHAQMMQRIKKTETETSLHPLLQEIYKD
The data set can be described thus: Transient transfection (transactivation) assay in CV-1 cells, hPPAR delta. It is filed as cell-based. Particulars: PPAR transactivation activity; GAL4-PPAR LBD chimera in CV-1 cells; concentration achieving 50% of maximum activity; read-out: human δEC50.
Text: as §1, §2

Regarding `Cc1nc(-c2ccc(C(F)(F)F)cc2)sc1COc1cccc(COC(C)(C)C(=O)O)c1` [Example 2, 2-methyl-2-{(3-[4-methyl-2-(4-trifluoromethylphenyl)thiazol-5-yl]methoxy)benzyloxy}propionic acid], the EC50 amounted to 2600 nM at human PPAR gamma, 2 nM at human PPAR alpha and 3200 nM on human PPAR delta.
For the compound `Cc1nc(-c2ccc(C(F)(F)F)cc2)sc1COc1cccc(COCC(=O)O)c1` [Example 6, 2-{(3-[4-methyl-2-(4-trifluoromethylphenyl)thiazol-5-yl]methoxy)benzyloxy}acetic acid], the melting point (in general, the temperature, or range, at which the solid turns liquid) was 121 °C.
In the case of `Cc1nc(-c2ccc(C(F)(F)F)cc2)sc1C(C)(C)Oc1cccc(COC(C)(C)C(=O)O)c1` [Example 10, 2-methyl-2-[3-{1-methyl-1-[4-methyl-2-(4-trifluoromethylphenyl)thiazol-5-yl]ethoxy}benzyloxy]propionic acid], the melting point was determined as 136 °C.
For `Cc1nc(-c2ccc(C(F)(F)F)cc2)sc1COc1cccc(CSCC(=O)O)c1` [Example 4, 2-{[(3-[4-methyl-2-(4-trifluoromethylphenyl)thiazol-5-yl]methoxy)benzyl]thio}acetic acid], the EC50 turned out to be 3600 nM on human PPAR gamma, 10 nM on human PPAR alpha and 1600 nM on human PPAR delta.
